# Reference: patent US9789114B2, “Compounds as HIF-1α inhibitors and manufacturing process thereof” (DONGGUK UNIVERSITY INDUSTRY-ACADEMIC COOPERATION FOUNDATION, priority 2011, dated 2017)
# Like-named read-outs stand apart in the source and are kept apart here.
# Columns and labels:
# [1] = tested on: HIF-1α-mediated HRE transcriptional activity; test: Assay for inhibition of HIF-1α-mediated transcriptional activity (HRE reporter assay); format: cell-based, human; settings: Homo sapiens, HCT-116, HCT116 cells, 12 hours under hypoxia (1% O2), read-out: Inhibitory activity against HIF-1α (10 μM)
# Protocol: <Experiment 1> Assay for Inhibition of HIF-1α-Mediated Transcriptional Activity (HRE Reporter Assay)
# The compounds can be developed as anti-cancer drugs, because the compounds inhibiting HIF-1α-mediated HRE transcriptional activity induced by hypoxia can suppress the growth and metastasis of cancer.
# Inhibitory effects of the compounds according to the present invention, from Formula I-1 to I-42, on HIF-1α-mediated transcriptional activity were evaluated using this assay. pGL3-HRE-luciferase vector was constructed as follows. Six copies of HRE (Hypoxia Responsive Element, 5′-ACGTG-3′) from human VEGF genes were inserted into the multi-cloning site of a pGL3-basic vector (Promega). A luciferase gene was used as a reporter gene.
# In detail, HCT116(ATCC #CCL-247) human colon cancer cells were seeded in 48-well cell culture plates. The cells were co-transfected with 25 ng of pGL3-HRE-luciferase and 2.5 ng of Renila control vectors using Polyfect reagent next day. After 24 hours of incubation, the cells were incubated for an additional 4 hours with replaced cell culture media. The cells were treated with various concentrations (0, 1, 3, 5, 10, and 20 μM) of the above compounds according to the present invention and incubated for 12 hours under hypoxia (1% O2, 94% N2, and 5% CO2). The luciferase assay was performed using a dual-luciferase reporter assay system (Promega). After cell lysate preparation with RIPA buffer, induced luciferase activity under hypoxic conditions was determined to examine inhibitory effects of the compounds according to the present invention, from Formula I-1 to I-42, on HIF-1α-mediated transcriptional activity.
# [2] = tested on: HCT116 colon cancer cells; test: In vivo anti-cancer activity by oral administration, HCT116 tumor in nude mice; design: species or system BALB/c nu/nu mice; settings: for inhibitory effects on tumor growth (TGI results): 20 mg/kg oral once a day, 14 days; for inhibition in vivo at 20 mg/kg: Mus musculus
# Protocol: <Example 4> In Vivo Anti-Cancer Activity of Compounds by Oral Administration
# (§1) In vivo anti-cancer activity of the compounds according to the present invention, I-3, I-6, I-8, I-16, I-19, I-22, I-23, and I-24, was measured in mice to evaluate in vivo efficacy by oral administration. Specifically, the nude mice were divided into test groups and control groups, each consisting of 4 mice. In vivo efficacy was evaluated by measuring body weight, tumor volume, and tumor weight.
# (§2) Female nude mice 6 weeks old (BALB/c nu/nu, Charles River) were bred in germ-free breeding rooms maintained at constant temperature and humidity. After the nude mice were anesthetized, HCT116 colon cancer cells were implanted at a count of […] cells/mouse into the rectum in BALB/c nu/nu mice and then the incisions were closed with surgical clips. The size of tumor was measured by a caliper. When the size of transplanted tumor reached to 50˜60 mm^3, the above compounds according to the present invention were administered. In more detail, after the above compounds in test groups were dissolved at concentration of 20 mg/kg in a solvent containing 80% of physiological saline, 10% of DMAC (dimethylacetamide), and 10% Tween 80 (hereinafter referred to as ‘Solvent A’), […] of dissolved compounds were orally administered once a day. Mice in control groups were treated with […] of Solvent A alone once daily.
# (§3) Tumor volume and body weight were measured to identify in vivo anti-cancer activity of the compounds according to the present invention by repetitive oral administration. Tumor volume and tumor growth inhibition (TGI) in Table 2 were calculated according to the below Mathematic FIG. 1 and FIG. 2, respectively. Tumor growth inhibition was converted to a percentage in Table 2.
# [3] = tested on: GAPDH; test: GAPDH expression level (internal control) in western blot, HCT116 cells; format: cell-based, human; settings: HCT116, hypoxia 1% O2, 0-30 μM, 12 hours, FIG. 1
# Protocol: (§4) First, HCT116 human colon cancer cells (ATCC #CCL-247) were plated at the concentration of 2×10^5 cells/ml. After 24 hours, the cells were incubated under hypoxia (1% O2, 94% N2, and 5% CO2, expressed as 1% O2 in FIG. 1) for 4 hours in order to induce HIF-la accumulation. Cells were treated with the compounds at various concentrations (0, 3, 10, 20, and 30 μM) for 12 hours under hypoxia. The cells were then harvested, and lysed in RIPA buffer to obtain nuclear extracts. Cells grown at 20% O2 (normoxia) were used as control groups to compare HIF-1α-mediated gene expression under each condition. 30 μg of the nuclear extracts per sample was separated by SDS-PAGE (sodium dodecyl sulfate-polyacrylamide gel electrophoresis), and was then transferred to PVDF (polyvinylidene fluoride membrane) membranes. After membranes were probed with HIF-1α antibodies (R&D System), HIF-1α proteins were detected with HRP-conjugated secondary antibodies (Amersham-Pharmacia). GAPDH (Glyceraldehyde 3-phosphate dehydrogenase) was used as an internal control for loading in western blot analysis.
# [4] = tested on: Chick embryo chorioallantoic membrane; test: CAM (chick embryo chorioallantoic membrane) assay; format: in vivo; settings: 10-20 μg on coverslip, 2 days, FIG. 2
# Protocol: CAM (Chick embryo chorioallantoic membrane) assay was conducted as an in vivo model to determine whether the compounds according to the present invention, I-3, I-6, I-19, and I-22, had anti-angiogenic effects or not. DMSO-treated groups were used as negative controls.
# According to the present invention, CAM assay was performed as follows.
# Fertilized eggs were incubated periodically rolling at 37° C. with 50% humidity for 2-3 days. When eggs were erected, approximately 3 ml of albumin was extracted from the sharp edge of the eggs using a syringe. The hole of the eggs was sealed with a tape to prevent from dryness and contamination, and the hole of the eggs was put down and incubated for 2 to 3 days. After punching a hole with 1.5 cm diameter in the round part of eggs, opaque membrane was removed carefully. The compounds (10-20 μg) according to the present invention were placed and spread on thermanox coverslip equally to dry, and then the hole in the round part of eggs put on the upper part of the fertilized eggs that vessels grew. The eggs were examined under the dissecting microscope and the results were given in FIG. 2, after covering the hole with a coverglass to protect it from contamination for 2 days.
# [5] = target: T1, HIF-1α (Homo sapiens, UniProt Q16665); test: Inhibition of hypoxia-induced HIF-1α accumulation, western blot in HCT116 cells; format: cell-based; settings: HCT116, hypoxia 1% O2, 0-30 μM, 12 hours, FIG. 1
# T1 construct: endogenous in cells; host or cells: HCT116 human colon cancer cells (ATCC #CCL-247)
# T1 sequence (Q16665 whole entry): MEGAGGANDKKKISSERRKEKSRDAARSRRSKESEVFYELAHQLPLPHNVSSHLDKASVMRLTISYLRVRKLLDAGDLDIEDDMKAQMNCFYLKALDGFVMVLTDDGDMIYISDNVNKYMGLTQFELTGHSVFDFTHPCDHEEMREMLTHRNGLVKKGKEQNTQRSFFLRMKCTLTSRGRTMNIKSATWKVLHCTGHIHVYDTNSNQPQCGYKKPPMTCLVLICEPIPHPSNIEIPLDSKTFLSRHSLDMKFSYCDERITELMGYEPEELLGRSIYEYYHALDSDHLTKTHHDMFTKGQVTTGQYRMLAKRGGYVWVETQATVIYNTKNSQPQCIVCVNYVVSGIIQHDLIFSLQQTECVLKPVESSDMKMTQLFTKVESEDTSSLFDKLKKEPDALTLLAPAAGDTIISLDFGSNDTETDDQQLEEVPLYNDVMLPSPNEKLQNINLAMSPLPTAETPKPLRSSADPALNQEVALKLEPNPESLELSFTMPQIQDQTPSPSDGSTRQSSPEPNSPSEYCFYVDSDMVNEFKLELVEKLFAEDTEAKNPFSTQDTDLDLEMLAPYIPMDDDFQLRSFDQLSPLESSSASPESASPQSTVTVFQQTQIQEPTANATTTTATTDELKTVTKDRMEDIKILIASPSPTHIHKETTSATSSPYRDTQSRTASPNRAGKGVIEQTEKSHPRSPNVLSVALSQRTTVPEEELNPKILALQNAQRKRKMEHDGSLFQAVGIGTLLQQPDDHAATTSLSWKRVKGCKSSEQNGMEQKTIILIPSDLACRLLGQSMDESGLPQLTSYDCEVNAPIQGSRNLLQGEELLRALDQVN
# Protocol: <Experiment 2> In Vitro Studies for Inhibition of Hypoxia-Induced HIF-1α Accumulation
# Inhibition of HIF-1α accumulation by the compounds according to the present invention was determined in HCT116 human colon cancer cells. In particular, western blot analysis was used to identify the compounds, I-3, I-6, I-8, I-16, I-19, I-22˜I-24, and I-27˜I-36, which inhibited HIF-1α accumulation under hypoxia.
# as §4
# [6] = Body weight change and side effects during 14 days of oral treatment in nude mice; format: in vivo, BALB/c nu/nu mice
# Protocol: as §1, §2, §3
# Moreover, severe side effects and statistically significant changes of body weight in all mice treated compounds were not shown for 14 days, comparing to control groups treated with vehicle. (Table 3)
# [7] = HCT-116, 72 h, day 3, 20 mg/kg oral once a day, read-out: TGI (tumor growth inhibition), tumor volume
# [8] = HCT-116, 120 h, day 5, 20 mg/kg oral once a day, read-out: TGI (tumor growth inhibition), tumor volume
# [9] = HCT-116, 168 h, day 7, 20 mg/kg oral once a day, read-out: TGI (tumor growth inhibition), tumor volume
# [10] = HCT-116, 240 h, day 10, 20 mg/kg oral once a day, read-out: TGI (tumor growth inhibition), tumor volume
# [11] = HCT-116, 288 h, day 12, 20 mg/kg oral once a day, read-out: TGI (tumor growth inhibition), tumor volume
# [12] = HCT-116, 336 h, day 14, 20 mg/kg oral once a day, read-out: TGI (tumor growth inhibition), tumor volume
# [13] = HCT-116, 336 h, day 14, 20 mg/kg oral once a day, read-out: TGI (tumor growth inhibition), tumor weight
# [14] = day 3, 20 mg/kg oral once a day
# [15] = day 5, 20 mg/kg oral once a day
# [16] = day 7, 20 mg/kg oral once a day
# [17] = day 10, 20 mg/kg oral once a day
# [18] = day 12, 20 mg/kg oral once a day
# [19] = day 14, 20 mg/kg oral once a day
# [20] = day 0, 20 mg/kg oral once a day
Structure (SMILES),inhibition at 10 µM [1],"inhibition in vivo at 20 mg/kg [2, 7]","inhibition in vivo at 20 mg/kg [2, 8]","inhibition in vivo at 20 mg/kg [2, 9]","inhibition in vivo at 20 mg/kg [2, 10]","inhibition in vivo at 20 mg/kg [2, 11]","inhibition in vivo at 20 mg/kg [2, 12]","inhibition in vivo at 20 mg/kg [2, 13]","Tumor volume [2, 14]","Tumor volume [2, 15]","Tumor volume [2, 16]","Tumor volume [2, 17]","Tumor volume [2, 18]","Tumor volume [2, 19]","Tumor weight [2, 19]",formation of vessels (anti-angiogenic effect) [4],"Body weight change [6, 20]","Body weight change [6, 14]","Body weight change [6, 15]","Body weight change [6, 16]",also measured
"CN1CCN(C(=O)COc2ccc(C34CC5CC(CC(C5)C3)C4)cc2)CC1 [Compound I-3, 2-(4-(Adamantan-1-yl)phenoxy)-1-(4-methylpiperazin-1-yl)ethanone]",76 to 100%,33.2%,35%,36%,41.6%,44.1%,49.2%,51.5%,31.6 ± 5.0 mm^3,74.8 ± 11.7 mm^3,133.7 ± 14.8 mm^3,237.0 ± 24.9 mm^3,371.4 ± 36.2 mm^3,587.8 ± 48.4 mm^3,2074.2 ± 373.8 mg,inhibited formation of vessels,100.0 ± 0.0%,103.2 ± 2.8%,104.7 ± 3.0%,105.1 ± 2.8%,"inhibitory effects on tumor growth (TGI results) [2]: significant inhibitory effects on tumor growth; GAPDH expression levels [3]: did not affect GAPDH expression levels; HIF-1α degradation [5]: promoted HIF-1α degradation; inhibitory effects on HIF-1α accumulation [5]: significant inhibitory effects on HIF-1α accumulation; Body weight change [6, 17]: 104.6 ± 2.7%; Body weight change [6, 18]: 103.1 ± 2.7%; Body weight change [6, 19]: 103.7 ± 4.0%"
"Cc1cc(C23CC4CC(CC(C4)C2)C3)ccc1OCC(=O)N1CCOCC1 [Compound I-6, 2-(4-(Adamantan-1-yl)-2-methylphenoxy)-1-morpholinoethanone]",76 to 100%,25%,24.1%,26.5%,28.4%,28.1%,28.4%,28.1%,25.5 ± 7.5 mm^3,70.1 ± 9.7 mm^3,128.4 ± 14.0 mm^3,186.6 ± 15.2 mm^3,322.5 ± 19.6 mm^3,476.9 ± 28.1 mm^3,1703.3 ± 252.2 mg,inhibited formation of vessels,100.0 ± 0.0%,103.4 ± 0.6%,103.6 ± 2.6%,103.8 ± 3.3%,"GAPDH expression levels [3]: did not affect GAPDH expression levels; HIF-1α degradation [5]: promoted HIF-1α degradation; Body weight change [6, 17]: 105.0 ± 3.1%; Body weight change [6, 18]: 103.8 ± 2.9%; Body weight change [6, 19]: 102.4 ± 3.0%"
"C[N+]1(C)CCN(C(=O)CCCOc2ccc(C34CC5CC(CC(C5)C3)C4)cc2)CC1.[I-] [Compound I-22, 4-(4-(4-(Adamantan-1-yl)phenoxy)butanoyl)-1,1-dimethylpiperazin-1-ium iodide]",51 to 75%,39.8%,40.8%,43.4%,45.1%,45.1%,47.8%,49.5%,20.4 ± 1.1 mm^3,54.7 ± 2.8 mm^3,98.9 ± 4.8 mm^3,143.1 ± 6.2 mm^3,246.4 ± 10.8 mm^3,347.6 ± 11.8 mm^3,1197.3 ± 156.3 mg,inhibited formation of vessels,100.0 ± 0.0%,104.1 ± 3.5%,104.1 ± 4.6%,104.1 ± 3.3%,"inhibitory effects on tumor growth (TGI results) [2]: significant inhibitory effects on tumor growth; inhibitory effects on HIF-1α accumulation [5]: significant inhibitory effects on HIF-1α accumulation; Body weight change [6, 17]: 105.6 ± 5.1%; Body weight change [6, 18]: 103.8 ± 3.6%; Body weight change [6, 19]: 102.7 ± 4.1%"
